Experimental data taken from patent US12203124B2, “Methods for improved rapid antimicrobial susceptibility testing” (priority 2016, dated 2025).

Test system: Bacteria
Assay: Bacterial growth with or without resazurin during incubation, BacTiter-Glo luminescence
Format: cell-based
Conditions: 4 hours at 35° C., versus resazurin added after incubation
Method: FIG. 1 illustrates growth luminescence ratios post-incubation of microogranisms, where resazurin was introduced to one group of microorganisms before the initial incubation period and the other group was introduced to resazurin after the initial incubation period.
Bacteria were inoculated into 96-well microplates comprise cation-adjusted Mueller Hinton broth in the presence and absence of resazurin (alamarBlue®) and incubated at 35° C. for 4 hours. For wells that were not incubated with resazurin, the growth indicator was added immediately after the 4-hour incubation. BacTiter-Glo reagent (Promega, Madison, WI) was added to all wells and luminescence was measured. […] Thus, it can be advantageous to remove growth indicator from test wells during incubation.

O=c1ccc2[n+]([O-])c3ccc(O)cc3oc-2c1 [resazurin, 7-hydroxy-10-oxidophenoxazin-10-ium-3-one]
Effect of resazurin present during incubation on viable bacteria (BacTiter-Glo luminescence): less luminescent signal was observed
